Measurements from ChEMBL document CHEMBL1151464 (2008).
Values after ≈ are worked out from the molar mass of the structure shown.

How the values were obtained:
Type in all cases: functional
[1] = system: Acinetobacter baumannii; assay: Antibacterial activity against Acinetobacter baumannii isolate 934 after 24 hrs by CLSI microdilution method; settings: isolate 934, 24 h
[2] = system: Acinetobacter baumannii; assay: Antibacterial activity against Acinetobacter baumannii isolate 931 after 24 hrs by CLSI microdilution method; settings: isolate 931, 24 h
[3] = system: Acinetobacter baumannii; assay: Antibacterial activity against Acinetobacter baumannii isolate 920 after 24 hrs by CLSI microdilution method; settings: isolate 920, 24 h
[4] = system: Pseudomonas aeruginosa; assay: Antibacterial activity against Pseudomonas aeruginosa isolate 319 after 24 hrs by CLSI microdilution method; settings: isolate 319, 24 h
[5] = system: Pseudomonas aeruginosa; assay: Antibacterial activity against Pseudomonas aeruginosa isolate 322 after 24 hrs by CLSI microdilution method; settings: isolate 322, 24 h
[6] = system: Pseudomonas aeruginosa; assay: Antibacterial activity against Pseudomonas aeruginosa isolate 331 after 24 hrs by CLSI microdilution method; settings: isolate 331, 24 h
[7] = system: Pseudomonas aeruginosa; assay: Antibacterial activity against Pseudomonas aeruginosa isolate 332 after 24 hrs by CLSI microdilution method; settings: isolate 332, 24 h
[8] = system: Pseudomonas aeruginosa; assay: Antibacterial activity against Pseudomonas aeruginosa isolate 334 after 24 hrs by CLSI microdilution method; settings: isolate 334, 24 h
[9] = system: Pseudomonas aeruginosa; assay: Antibacterial activity against Pseudomonas aeruginosa isolate 335 after 24 hrs by CLSI microdilution method; settings: isolate 335, 24 h
[10] = system: Pseudomonas aeruginosa; assay: Antibacterial activity against Pseudomonas aeruginosa isolate 337 after 24 hrs by CLSI microdilution method; settings: isolate 337, 24 h
[11] = system: Pseudomonas aeruginosa; assay: Antibacterial activity against Pseudomonas aeruginosa isolate 338 after 24 hrs by CLSI microdilution method; settings: isolate 338, 24 h
[12] = system: Pseudomonas aeruginosa; assay: Antibacterial activity against Pseudomonas aeruginosa isolate 339 after 24 hrs by CLSI microdilution method; settings: isolate 339, 24 h
[13] = system: Pseudomonas aeruginosa; assay: Antibacterial activity against Pseudomonas aeruginosa isolate 340 after 24 hrs by CLSI microdilution method; settings: isolate 340, 24 h
[14] = system: Pseudomonas aeruginosa; assay: Antibacterial activity against Pseudomonas aeruginosa isolate 341 after 24 hrs by CLSI microdilution method; settings: isolate 341, 24 h
[15] = system: Pseudomonas aeruginosa; assay: Antibacterial activity against Pseudomonas aeruginosa isolate 344 after 24 hrs by CLSI microdilution method; settings: isolate 344, 24 h
[16] = system: Pseudomonas aeruginosa; assay: Antibacterial activity against Pseudomonas aeruginosa isolate 345 after 24 hrs by CLSI microdilution method; settings: isolate 345, 24 h
[17] = system: Pseudomonas aeruginosa; assay: Antibacterial activity against Pseudomonas aeruginosa isolate 346 after 24 hrs by CLSI microdilution method; settings: isolate 346, 24 h
[18] = system: Pseudomonas aeruginosa; assay: Antibacterial activity against Pseudomonas aeruginosa isolate 348 after 24 hrs by CLSI microdilution method; settings: isolate 348, 24 h
[19] = system: Pseudomonas aeruginosa; assay: Antibacterial activity against Pseudomonas aeruginosa isolate 349 after 24 hrs by CLSI microdilution method; settings: isolate 349, 24 h
[20] = system: Pseudomonas aeruginosa; assay: Antibacterial activity against Pseudomonas aeruginosa isolate 352 after 24 hrs by CLSI microdilution method; settings: isolate 352, 24 h
[21] = system: Pseudomonas aeruginosa; assay: Antibacterial activity against Pseudomonas aeruginosa isolate 353 after 24 hrs by CLSI microdilution method; settings: isolate 353, 24 h
[22] = system: Pseudomonas aeruginosa; assay: Antibacterial activity against Pseudomonas aeruginosa isolate 354 after 24 hrs by CLSI microdilution method; settings: isolate 354, 24 h
[23] = system: Pseudomonas aeruginosa; assay: Antibacterial activity against Pseudomonas aeruginosa isolate 355 after 24 hrs by CLSI microdilution method; settings: isolate 355, 24 h
[24] = system: Pseudomonas aeruginosa; assay: Antibacterial activity against Pseudomonas aeruginosa isolate 357 after 24 hrs by CLSI microdilution method; settings: isolate 357, 24 h
[25] = system: Pseudomonas aeruginosa; assay: Antibacterial activity against Pseudomonas aeruginosa isolate 363 after 24 hrs by CLSI microdilution method; settings: isolate 363, 24 h
[26] = system: Pseudomonas aeruginosa; assay: Antibacterial activity against Pseudomonas aeruginosa isolate 364 after 24 hrs by CLSI microdilution method; settings: isolate 364, 24 h
[27] = system: Pseudomonas aeruginosa; assay: Antibacterial activity against Pseudomonas aeruginosa isolate 365 after 24 hrs by CLSI microdilution method; settings: isolate 365, 24 h
[28] = system: Pseudomonas aeruginosa; assay: Antibacterial activity against Pseudomonas aeruginosa isolate 366 after 24 hrs by CLSI microdilution method; settings: isolate 366, 24 h
[29] = system: Pseudomonas aeruginosa; assay: Antibacterial activity against Pseudomonas aeruginosa isolate 368 after 24 hrs by CLSI microdilution method; settings: isolate 368, 24 h
[30] = system: Pseudomonas aeruginosa; assay: Antibacterial activity against Pseudomonas aeruginosa isolate 370 after 24 hrs by CLSI microdilution method; settings: isolate 370, 24 h
[31] = system: Pseudomonas aeruginosa; assay: Antibacterial activity against Pseudomonas aeruginosa isolate 371 after 24 hrs by CLSI microdilution method; settings: isolate 371, 24 h
[32] = system: Pseudomonas aeruginosa; assay: Antibacterial activity against Pseudomonas aeruginosa isolate 372 after 24 hrs by CLSI microdilution method; settings: isolate 372, 24 h
[33] = system: Pseudomonas aeruginosa; assay: Antibacterial activity against Pseudomonas aeruginosa isolate 373 after 24 hrs by CLSI microdilution method; settings: isolate 373, 24 h
[34] = system: Pseudomonas aeruginosa; assay: Antibacterial activity against Pseudomonas aeruginosa isolate 374 after 24 hrs by CLSI microdilution method; settings: isolate 374, 24 h
[35] = system: Pseudomonas aeruginosa; assay: Antibacterial activity against Pseudomonas aeruginosa isolate 375 after 24 hrs by CLSI microdilution method; settings: isolate 375, 24 h
[36] = system: Pseudomonas aeruginosa; assay: Antibacterial activity against Pseudomonas aeruginosa isolate 379 expressing VIM2 beta-lactamase after 24 hrs by CLSI microdilution method; settings: isolate 379, 24 h
[37] = system: Acinetobacter baumannii; assay: Antibacterial activity against Acinetobacter baumannii isolate 882 after 24 hrs by CLSI microdilution method; settings: isolate 882, 24 h
[38] = system: Acinetobacter baumannii; assay: Antibacterial activity against Acinetobacter baumannii isolate 883 after 24 hrs by CLSI microdilution method; settings: isolate 883, 24 h
[39] = system: Acinetobacter baumannii; assay: Antibacterial activity against Acinetobacter baumannii isolate 884 after 24 hrs by CLSI microdilution method; settings: isolate 884, 24 h
[40] = system: Acinetobacter baumannii; assay: Antibacterial activity against Acinetobacter baumannii isolate 886 after 24 hrs by CLSI microdilution method; settings: isolate 886, 24 h
[41] = system: Acinetobacter baumannii; assay: Antibacterial activity against Acinetobacter baumannii isolate 887 after 24 hrs by CLSI microdilution method; settings: isolate 887, 24 h
[42] = system: Acinetobacter baumannii; assay: Antibacterial activity against Acinetobacter baumannii isolate 888 after 24 hrs by CLSI microdilution method; settings: isolate 888, 24 h
[43] = system: Pseudomonas aeruginosa; assay: Antibacterial activity against Pseudomonas aeruginosa isolate 361 after 24 hrs by CLSI microdilution method; settings: isolate 361, 24 h
[44] = system: Acinetobacter baumannii; assay: Antibacterial activity against Acinetobacter baumannii isolate 889 after 24 hrs by CLSI microdilution method; settings: isolate 889, 24 h
[45] = system: Acinetobacter baumannii; assay: Antibacterial activity against Acinetobacter baumannii isolate 897 after 24 hrs by CLSI microdilution method; settings: isolate 897, 24 h
[46] = system: Acinetobacter baumannii; assay: Antibacterial activity against Acinetobacter baumannii isolate 898 after 24 hrs by CLSI microdilution method; settings: isolate 898, 24 h
[47] = system: Acinetobacter baumannii; assay: Antibacterial activity against Acinetobacter baumannii isolate 900 after 24 hrs by CLSI microdilution method; settings: isolate 900, 24 h
[48] = system: Acinetobacter baumannii; assay: Antibacterial activity against Acinetobacter baumannii isolate 901 after 24 hrs by CLSI microdilution method; settings: isolate 901, 24 h
[49] = system: Acinetobacter baumannii; assay: Antibacterial activity against Acinetobacter baumannii isolate 902 after 24 hrs by CLSI microdilution method; settings: isolate 902, 24 h
[50] = system: Acinetobacter baumannii; assay: Antibacterial activity against Acinetobacter baumannii isolate 903 after 24 hrs by CLSI microdilution method; settings: isolate 903, 24 h
[51] = system: Acinetobacter baumannii; assay: Antibacterial activity against Acinetobacter baumannii isolate 906 after 24 hrs by CLSI microdilution method; settings: isolate 906, 24 h
[52] = system: Acinetobacter baumannii; assay: Antibacterial activity against Acinetobacter baumannii isolate 908 after 24 hrs by CLSI microdilution method; settings: isolate 908, 24 h
[53] = system: Acinetobacter baumannii; assay: Antibacterial activity against Acinetobacter baumannii isolate 911 after 24 hrs by CLSI microdilution method; settings: isolate 911, 24 h
[54] = system: Acinetobacter baumannii; assay: Antibacterial activity against Acinetobacter baumannii isolate 914 after 24 hrs by CLSI microdilution method; settings: isolate 914, 24 h
[55] = system: Acinetobacter baumannii; assay: Antibacterial activity against Acinetobacter baumannii isolate 916 after 24 hrs by CLSI microdilution method; settings: isolate 916, 24 h
[56] = system: Acinetobacter baumannii; assay: Antibacterial activity against Acinetobacter baumannii isolate 917 after 24 hrs by CLSI microdilution method; settings: isolate 917, 24 h
[57] = system: Acinetobacter baumannii; assay: Antibacterial activity against Acinetobacter baumannii isolate 922 after 24 hrs by CLSI microdilution method; settings: isolate 922, 24 h
[58] = system: Acinetobacter baumannii; assay: Antibacterial activity against Acinetobacter baumannii isolate 923 after 24 hrs by CLSI microdilution method; settings: isolate 923, 24 h
[59] = system: Acinetobacter baumannii; assay: Antibacterial activity against Acinetobacter baumannii isolate 924 after 24 hrs by CLSI microdilution method; settings: isolate 924, 24 h

Molecule C[C@@H](O)[C@H]1C(=O)N2C(C(=O)O)=C(S[C@@H]3CN[C@H](C(=O)N(C)C)C3)[C@H](C)[C@H]12 [MEROPENEM] has an MIC [1] of 32 µg/mL (≈ 83.4 µM), an MIC [2] of 2 µg/mL (≈ 5.22 µM) and an MIC [3] of 1 µg/mL (≈ 2.61 µM). It also gave an MIC [4] of 2 µg/mL (≈ 5.22 µM), an MIC [5] of 2 µg/mL (≈ 5.22 µM) and an MIC [6] of 0.12 µg/mL (≈ 0.313 µM). For the same molecule, the MIC [7] was 4 µg/mL (≈ 10.4 µM), the MIC [8] was 1 µg/mL (≈ 2.61 µM) and the MIC [9] was 4 µg/mL (≈ 10.4 µM). It also gave an MIC [10] of 1 µg/mL (≈ 2.61 µM), an MIC [11] of 1 µg/mL (≈ 2.61 µM) and an MIC [12] of 0.5 µg/mL (≈ 1.3 µM). The MIC [13] was 1 µg/mL (≈ 2.61 µM), the MIC [14] was 0.5 µg/mL (≈ 1.3 µM) and the MIC [15] was 0.5 µg/mL (≈ 1.3 µM). For the same molecule, the MIC [16] was 1 µg/mL (≈ 2.61 µM), the MIC [17] was 1 µg/mL (≈ 2.61 µM) and the MIC [18] was 0.25 µg/mL (≈ 0.652 µM). It also gave an MIC [19] of 2 µg/mL (≈ 5.22 µM), an MIC [20] of 2 µg/mL (≈ 5.22 µM) and an MIC [21] of 2 µg/mL (≈ 5.22 µM). For the same molecule, the MIC [22] was 0.12 µg/mL (≈ 0.313 µM), the MIC [23] was 0.25 µg/mL (≈ 0.652 µM) and the MIC [24] was 0.5 µg/mL (≈ 1.3 µM). The MIC [25] was 1 µg/mL (≈ 2.61 µM), the MIC [26] was 0.12 µg/mL (≈ 0.313 µM) and the MIC [27] was 1 µg/mL (≈ 2.61 µM). The MIC [28] was 0.5 µg/mL (≈ 1.3 µM), the MIC [29] was 0.25 µg/mL (≈ 0.652 µM) and the MIC [30] was 1 µg/mL (≈ 2.61 µM). It also gave an MIC [31] of 16 µg/mL (≈ 41.7 µM), an MIC [32] of 16 µg/mL (≈ 41.7 µM) and an MIC [33] of 2 µg/mL (≈ 5.22 µM). For the same molecule, the MIC [34] was 0.5 µg/mL (≈ 1.3 µM), the MIC [35] was 0.5 µg/mL (≈ 1.3 µM) and the MIC [36] was 256 µg/mL (≈ 668 µM). For the same molecule, the MIC [37] was 1 µg/mL (≈ 2.61 µM), the MIC [38] was 1 µg/mL (≈ 2.61 µM) and the MIC [39] was 8 µg/mL (≈ 20.9 µM). For the same molecule, the MIC [40] was 0.5 µg/mL (≈ 1.3 µM), the MIC [41] was 1 µg/mL (≈ 2.61 µM) and the MIC [42] was 1 µg/mL (≈ 2.61 µM). For the same molecule, the MIC [43] was 0.25 µg/mL (≈ 0.652 µM), the MIC [44] was 1 µg/mL (≈ 2.61 µM) and the MIC [45] was 1 µg/mL (≈ 2.61 µM). The MIC [46] was 8 µg/mL (≈ 20.9 µM), the MIC [47] was 0.5 µg/mL (≈ 1.3 µM) and the MIC [48] was 8 µg/mL (≈ 20.9 µM). For the same molecule, the MIC [49] was 1 µg/mL (≈ 2.61 µM), the MIC [50] was 1 µg/mL (≈ 2.61 µM) and the MIC [51] was 1 µg/mL (≈ 2.61 µM). The MIC [52] was 2 µg/mL (≈ 5.22 µM), the MIC [53] was 16 µg/mL (≈ 41.7 µM) and the MIC [54] was 0.5 µg/mL (≈ 1.3 µM). It also gave an MIC [55] of 8 µg/mL (≈ 20.9 µM), an MIC [56] of 0.5 µg/mL (≈ 1.3 µM) and an MIC [57] of 1 µg/mL (≈ 2.61 µM). The MIC [58] was 0.5 µg/mL (≈ 1.3 µM) and the MIC [59] was 0.5 µg/mL (≈ 1.3 µM).
